# Source: ChEMBL document CHEMBL1201862, “PubChem BioAssay data set” (2004)
#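 Cells were grown in 96-well plates and exposed to each compound for 48 hours at five concentrations; endpoints were interpolated linearly between bracketing concentrations, or set to the highest concentration if not reached. GI50: concentration for 50% inhibition of growth.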 The source made the active and inactive calls. No stated cut-off is given here; in the data, active = GI50 up to about 1.1 µM and inactive = higher.
# Key:
# Assay in all cases: NCI-60 cell line screen, 48 h
# [1] = tested on: MDA-MB-435
# [2] = tested on: HCT-116
# [3] = tested on: Malme-3M
# [4] = tested on: NCI-H460
# [5] = tested on: NCI-H23
# [6] = tested on: M14
# [7] = tested on: SR
# [8] = tested on: K562
# [9] = tested on: OVCAR-4
# [10] = tested on: T47D
# [11] = tested on: UACC-257
# [12] = tested on: SW-620
# [13] = tested on: SN12C
# [14] = tested on: IGROV-1
# [15] = tested on: 786-0
# [16] = tested on: KM12
# [17] = tested on: BT-549
# [18] = tested on: U-251
# [19] = tested on: MDA-N
# [20] = tested on: MCF7
# [21] = tested on: Hs-578T
# [22] = tested on: HOP-92
# [23] = tested on: COLO 205
# [24] = tested on: HCT-15
# [25] = tested on: PC-3
# [26] = tested on: TK-10
# [27] = tested on: SNB-75
# [28] = tested on: ACHN
# [29] = tested on: SF-268
# [30] = tested on: RXF 393
# [31] = tested on: DU-145
# [32] = tested on: HL-60
# [33] = tested on: MDA-MB-231
# [34] = tested on: MOLT-4
# [35] = tested on: LOX IMVI
# [36] = tested on: RPMI-8226
# [37] = tested on: HOP-62
# [38] = tested on: UO-31
# [39] = tested on: SK-OV-3
# [40] = tested on: SF-539
# [41] = tested on: SK-MEL-5
# [42] = tested on: NCI-H522
# [43] = tested on: OVCAR-3
# [44] = tested on: HCC 2998
# [45] = tested on: HT-29
# [46] = tested on: SF-295
# [47] = tested on: EKVX
# [48] = tested on: UACC-62
# [49] = tested on: CCRF-CEM
# [50] = tested on: OVCAR-5
# [51] = tested on: SNB-19
# [52] = tested on: NCI/ADR-RES
# [53] = tested on: SK-MEL-28
# [54] = tested on: OVCAR-8
# [55] = tested on: A498
# [56] = tested on: A549
# [57] = tested on: SK-MEL-2
# [58] = tested on: CAKI-1
# [59] = tested on: NCI-H226
compound,measurement,setting,value
O=C(CC(C(=O)c1cccs1)c1ccsc1)c1ccsc1 (stereo not drawn),GI50,[1],20.3 µM (inactive)
same,GI50,[2],27.4 µM (inactive)
same,GI50,[3],78.5 µM (inactive)
same,GI50,[4],23 µM (inactive)
same,GI50,[5],53 µM (inactive)
same,GI50,[6],16.9 µM (inactive)
same,GI50,[7],32.6 µM (inactive)
same,GI50,[8],27.4 µM (inactive)
same,GI50,[9],27.4 µM (inactive)
same,GI50,[10],30.6 µM (inactive)
same,GI50,[11],70.5 µM (inactive)
same,GI50,[12],29.7 µM (inactive)
same,GI50,[13],52 µM (inactive)
same,GI50,[14],54.1 µM (inactive)
same,GI50,[15],46.2 µM (inactive)
same,GI50,[16],42.9 µM (inactive)
same,GI50,[17],28.3 µM (inactive)
same,GI50,[18],46.3 µM (inactive)
same,GI50,[19],> 10 µM (inactive)
same,GI50,[20],32.5 µM (inactive)
same,GI50,[21],20.3 µM (inactive)
same,GI50,[22],29.2 µM (inactive)
same,GI50,[23],18.2 µM (inactive)
same,GI50,[24],42.1 µM
same,GI50,[25],29 µM (inactive)
same,GI50,[26],> 100 µM (inactive)
same,GI50,[27],25.6 µM (inactive)
same,GI50,[28],58.2 µM (inactive)
same,GI50,[29],51.6 µM (inactive)
same,GI50,[30],25.6 µM (inactive)
same,GI50,[31],44.8 µM (inactive)
same,GI50,[32],40.1 µM (inactive)
same,GI50,[33],30 µM (inactive)
same,GI50,[34],21 µM (inactive)
same,GI50,[35],22.8 µM (inactive)
same,GI50,[36],27.1 µM (inactive)
same,GI50,[37],56.9 µM (inactive)
same,GI50,[38],31.4 µM (inactive)
same,GI50,[39],32.1 µM (inactive)
same,GI50,[40],27.5 µM (inactive)
same,GI50,[41],16.1 µM (inactive)
same,GI50,[42],20.4 µM (inactive)
same,GI50,[43],40.2 µM (inactive)
same,GI50,[44],34.1 µM (inactive)
same,GI50,[45],36.6 µM (inactive)
same,GI50,[46],24.6 µM (inactive)
same,GI50,[47],38 µM (inactive)
same,GI50,[48],14 µM (inactive)
same,GI50,[49],29 µM (inactive)
same,GI50,[50],> 100 µM (inactive)
same,GI50,[51],50.6 µM (inactive)
same,GI50,[52],24.8 µM (inactive)
same,GI50,[53],50.5 µM (inactive)
same,GI50,[54],39.4 µM (inactive)
same,GI50,[55],11.4 µM (inactive)
same,GI50,[56],45.8 µM (inactive)
O=C1CSC(c2cccc([N+](=O)[O-])c2)N1c1ccc(-n2c(-c3ccccc3)nc3ccccc3c2=O)cc1 (stereo not drawn),GI50,[1],> 100 µM (inactive)
same,GI50,[2],> 100 µM (inactive)
same,GI50,[3],> 100 µM (inactive)
same,GI50,[4],> 100 µM (inactive)
same,GI50,[5],> 100 µM (inactive)
same,GI50,[6],> 100 µM (inactive)
same,GI50,[7],84.3 µM (inactive)
same,GI50,[8],> 100 µM (inactive)
same,GI50,[9],> 100 µM (inactive)
same,GI50,[10],6.68 µM (inactive)
same,GI50,[11],> 100 µM (inactive)
same,GI50,[12],> 100 µM (inactive)
same,GI50,[13],> 100 µM (inactive)
same,GI50,[14],> 100 µM (inactive)
same,GI50,[15],> 100 µM (inactive)
same,GI50,[16],> 100 µM (inactive)
same,GI50,[17],28.2 µM (inactive)
same,GI50,[57],56.9 µM (inactive)
same,GI50,[18],> 100 µM (inactive)
same,GI50,[19],> 100 µM (inactive)
same,GI50,[58],> 100 µM (inactive)
same,GI50,[20],> 100 µM (inactive)
same,GI50,[21],78.2 µM (inactive)
same,GI50,[22],94.8 µM (inactive)
same,GI50,[23],> 100 µM (inactive)
same,GI50,[24],30.5 µM
same,GI50,[25],> 100 µM (inactive)
same,GI50,[26],> 100 µM (inactive)
same,GI50,[28],> 100 µM (inactive)
same,GI50,[29],99.3 µM (inactive)
same,GI50,[31],> 100 µM (inactive)
same,GI50,[32],> 100 µM (inactive)
same,GI50,[33],> 100 µM (inactive)
same,GI50,[34],83.8 µM (inactive)
same,GI50,[35],> 100 µM (inactive)
same,GI50,[36],> 100 µM (inactive)
same,GI50,[37],> 100 µM (inactive)
same,GI50,[38],3.76 µM (inactive)
same,GI50,[39],26.2 µM (inactive)
same,GI50,[40],> 100 µM (inactive)
same,GI50,[41],> 100 µM (inactive)
same,GI50,[42],> 100 µM (inactive)
same,GI50,[59],> 100 µM (inactive)
same,GI50,[43],> 100 µM (inactive)
same,GI50,[44],63.7 µM (inactive)
same,GI50,[45],> 100 µM (inactive)
same,GI50,[46],> 100 µM (inactive)
same,GI50,[47],> 100 µM (inactive)
same,GI50,[48],13.9 µM (inactive)
same,GI50,[49],> 100 µM (inactive)
same,GI50,[50],> 100 µM (inactive)
same,GI50,[51],> 100 µM (inactive)
same,GI50,[52],> 100 µM (inactive)
same,GI50,[53],> 100 µM (inactive)
same,GI50,[54],> 100 µM (inactive)
same,GI50,[55],> 100 µM (inactive)
same,GI50,[56],> 100 µM (inactive)
